Test results: paper PMC6480460, “Derivatives of the β-Crinane Amaryllidaceae Alkaloid Haemanthamine as Multi-Target Directed Ligands for Alzheimer’s Disease” (Molecules, 2019)
Like-named read-outs stand apart in the source and are kept apart here.

How the values were obtained:
hAChE [1] = target: T1, hAChE (Homo sapiens, UniProt P22303); assay: biochemical; format: biochemical; settings: for IC50: mean ± SEM of three independent measurements, each in triplicate
Description: (§1) The hAChE and hBuChE activities were determined using a modified method of Ellman with acetylthiocholine iodide (ATChI) and butyrylthiocholine iodide (BuTChI) as substrates, respectively.

hBuChE [2] = target: T2, hBuChE (Homo sapiens, UniProt P06276); assay: biochemical; format: biochemical
Description: as §1

GSK-3β = GSK-3β (Homo sapiens, UniProt P49841); assay: GSK-3β assay (Kinase-Glo Kit); format: biochemical; settings: for inhibition at 10 µM: tested at 10 µM compound concentration, read-out: GSK-3β (% inhib.)
Description: The GSK-3β assay was performed by using Kinase-Glo Kit obtained from Promega (Promega Biotech Iberica, SL, Madrid, Spain) as described previously.

in vitro = settings: for PAMPA-BBB Permeability (Pe) / Papp: PBS:EtOH (70:30) as solvent, mean ± SD of 2 independent experiments; for PAMPA-BBB prediction of penetration in the CNS: class from Pe; for Papp: pig, PAMPA, PAMPA-BBB Permeability (Pe)
Description: The PAMPA assay was performed as previously described.

[3] = test system: Jurkat (acute T cell leukemia); assay: WST-1 cytotoxicity assay, Jurkat; format: cell-based; settings: Homo sapiens, c = 10 μM, 48 h, percent of proliferation of untreated control cells
Excerpt: (§2) Selected human tumor and non-tumor cell lines {Jurkat (acute T cell leukemia), MOLT-4 (acute lymphoblastic leukemia), A549 (lung carcinoma), HT-29 (colorectal adenocarcinoma), PANC-1 (pancreas epithelioid carcinoma), A2780 (ovarian carcinoma), HeLa (cervix adenocarcinoma), MCF-7 (breast adenocarcinoma), SAOS-2 (osteosarcoma) and MRC-5 (normal lung fibroblasts)} were purchased from either ATCC (Manassas, VA, USA) or Sigma-Aldrich (St. Louis, MO, USA) and cultured according to the provider’s culture method guidelines. […] Cells in the maximum range of either 10 passages for primary cell line (MRC-5), or in the maximum range of 20 passages for cancer cell lines (Jurkat, MOLT-4, A549, HT-29, PANC-1, A2780, HeLa, MCF-7 and SAOS-2) and in an exponential growth phase were used for this study.
(§3) The WST-1 (Roche, Mannheim, Germany) reagent was used to determine the cytostatic effect of the test compounds. WST-1 is designed for the spectrophotometric quantification of cell proliferation, growth, viability and chemosensitivity in cell populations using a 96-well-plate format (Sigma, St. Louis, MO, USA). The principle of WST-1 is based on photometric detection of the reduction of tetrazolium salt to a colored formazan product. The cells were seeded at a previously established optimal density (30,000 Jurkat, 25,000 MOLT-4, 500 A549, 1500 HT-29, 2000 PANC-1, 5000 A2780, 500 HeLa, 1500 MCF-7, 2000 SAOS-2 and 2000 MRC-5 cells/well) in 100 µL of culture medium, and adherent cells were allowed to reattach overnight. Thereafter, the cells were treated with 100 µL of either corresponding alkaloids or doxorubicin stock solutions to obtain the desired concentrations and incubated in 5% CO2 at 37 °C. WST-1 reagent diluted 4-fold with PBS (50 µL) was added 48 h after treatment. Absorbance was measured after 3 h incubation with WST-1 at 440 nm. The measurements were performed in a Tecan Infinite M200 spectrometer (Tecan Group, Männedorf, Switzerland). All experiments were performed at least three times with triplicate measurements at each drug concentration per experiment. The viability was quantified as described previously according to the following formula: (%) viability = (Asample − Ablank)/(Acontrol − Ablank) × 100, where A is the absorbance of the employed WST-1 formazan measured at 440 nm. The viability of the treated cells was normalized to the viability of cells treated with 0.1% DMSO (Sigma-Aldrich) as a vehicle control.

[4] = test system: MOLT-4 (acute lymphoblastic leukemia); assay: WST-1 cytotoxicity assay, MOLT-4; format: cell-based; settings: Homo sapiens, c = 10 μM, 48 h, percent of proliferation of untreated control cells, read-out: Cell proliferation, MOLT-4
Excerpt: as §2, §3

A549 (lung carcinoma) = assay: WST-1 cytotoxicity assay, A549; format: cell-based; settings: Homo sapiens, c = 10 μM, 48 h, percent of proliferation of untreated control cells, read-out: Cell proliferation, A549
Excerpt: as §2, §3

[5] = test system: HT-29 (colorectal adenocarcinoma); assay: WST-1 cytotoxicity assay, HT-29; format: cell-based; settings: Homo sapiens, c = 10 μM, 48 h, percent of proliferation of untreated control cells, read-out: Cell proliferation, HT-29
Excerpt: as §2, §3

[6] = test system: PANC-1 (pancreas epithelioid carcinoma); assay: WST-1 cytotoxicity assay, PANC-1; format: cell-based; settings: Homo sapiens, c = 10 μM, 48 h, percent of proliferation of untreated control cells, read-out: Cell proliferation, PANC-1
Excerpt: as §2, §3

[7] = test system: A2780 (ovarian carcinoma); assay: WST-1 cytotoxicity assay, A2780; format: cell-based; settings: Homo sapiens, c = 10 μM, 48 h, percent of proliferation of untreated control cells, read-out: Cell proliferation, A2780
Excerpt: as §2, §3

[8] = test system: HeLa (cervix adenocarcinoma); assay: WST-1 cytotoxicity assay, HeLa; format: cell-based; settings: Homo sapiens, c = 10 μM, 48 h, percent of proliferation of untreated control cells, read-out: Cell proliferation, HeLa
Excerpt: as §2, §3

[9] = test system: MCF-7 (breast adenocarcinoma); assay: WST-1 cytotoxicity assay, MCF-7; format: cell-based; settings: Homo sapiens, MCF7; c = 10 μM, 48 h, percent of proliferation of untreated control cells; read-out: Cell proliferation, MCF-7
Excerpt: as §2, §3

SAOS-2 (osteosarcoma) = assay: WST-1 cytotoxicity assay, SAOS-2; format: cell-based; settings: Homo sapiens, c = 10 μM, 48 h, percent of proliferation of untreated control cells, read-out: Cell proliferation, SAOS-2
Excerpt: as §2, §3

[10] = test system: MRC-5 (normal lung fibroblasts); assay: WST-1 cytotoxicity assay, MRC-5; format: cell-based; settings: Homo sapiens, MRC5; c = 10 μM, 48 h, percent of proliferation of untreated control cells; read-out: Cell proliferation, MRC-5
Excerpt: as §2, §3

hAChE [11] = target: T1, hAChE; assay: AChE inhibition mechanism (Lineweaver-Burk kinetic analysis); format: biochemical; settings: Lineweaver-Burk plot; Km and Vm decreased
Description: (§4) The antiproliferative effect of 1a–1m at 10 µM single-dose treatment regimen was assessed using WST-1 tetrazolium salt assay. […] Kinetic analysis of 1j and 1m was used for the determination of their inhibition pattern against both hAChE and hBuChE. […] The Km and Vm values were calculated from the Lineweaver-Burk plot.

hBuChE [12] = target: T2, hBuChE; assay: BuChE inhibition mechanism (Lineweaver-Burk kinetic analysis); format: biochemical; settings: for mechanism of inhibition of hBuChE: Lineweaver-Burk plot, Km and Vm decreased
Description: as §4

[13] = test system: human cell lines (Jurkat, MOLT-4, A549, HT-29, PANC-1, A2780, HeLa, MCF-7, SAOS-2 and MRC-5); assay: WST-1 antiproliferative screen, whole panel of tested human cell lines; format: cell-based; settings: 10 µM single-dose, 48 h of exposure
Description: as §4, with “plot. […]” for “plot.”
The WST-1 (Roche, Mannheim, Germany) reagent was used to determine the cytostatic effect of the test compounds. WST-1 is designed for the spectrophotometric quantification of cell proliferation, growth, viability and chemosensitivity in cell populations using a 96-well-plate format (Sigma, St. Louis, MO, USA). […] Absorbance was measured after 3 h incubation with WST-1 at 440 nm. […] The viability was quantified as described previously according to the following formula: (%) viability = (Asample − Ablank)/(Acontrol − Ablank) × 100, where A is the absorbance of the employed WST-1 formazan measured at 440 nm. […]

[14] = mean ± SEM of three independent measurements, each in triplicate, read-out: hBuChE IC50

GSK-3β, sequence (P49841 whole entry): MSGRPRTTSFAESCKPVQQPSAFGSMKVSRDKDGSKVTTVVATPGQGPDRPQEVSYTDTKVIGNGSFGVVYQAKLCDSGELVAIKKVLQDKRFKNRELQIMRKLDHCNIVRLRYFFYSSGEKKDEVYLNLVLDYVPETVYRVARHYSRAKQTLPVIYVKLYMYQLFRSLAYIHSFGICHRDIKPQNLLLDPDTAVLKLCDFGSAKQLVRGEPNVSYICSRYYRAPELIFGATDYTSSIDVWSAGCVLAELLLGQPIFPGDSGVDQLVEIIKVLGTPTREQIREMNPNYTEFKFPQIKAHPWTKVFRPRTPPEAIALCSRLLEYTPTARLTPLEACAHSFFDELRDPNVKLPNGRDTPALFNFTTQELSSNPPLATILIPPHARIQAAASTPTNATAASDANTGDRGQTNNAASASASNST
T1 sequence (P22303 32-614): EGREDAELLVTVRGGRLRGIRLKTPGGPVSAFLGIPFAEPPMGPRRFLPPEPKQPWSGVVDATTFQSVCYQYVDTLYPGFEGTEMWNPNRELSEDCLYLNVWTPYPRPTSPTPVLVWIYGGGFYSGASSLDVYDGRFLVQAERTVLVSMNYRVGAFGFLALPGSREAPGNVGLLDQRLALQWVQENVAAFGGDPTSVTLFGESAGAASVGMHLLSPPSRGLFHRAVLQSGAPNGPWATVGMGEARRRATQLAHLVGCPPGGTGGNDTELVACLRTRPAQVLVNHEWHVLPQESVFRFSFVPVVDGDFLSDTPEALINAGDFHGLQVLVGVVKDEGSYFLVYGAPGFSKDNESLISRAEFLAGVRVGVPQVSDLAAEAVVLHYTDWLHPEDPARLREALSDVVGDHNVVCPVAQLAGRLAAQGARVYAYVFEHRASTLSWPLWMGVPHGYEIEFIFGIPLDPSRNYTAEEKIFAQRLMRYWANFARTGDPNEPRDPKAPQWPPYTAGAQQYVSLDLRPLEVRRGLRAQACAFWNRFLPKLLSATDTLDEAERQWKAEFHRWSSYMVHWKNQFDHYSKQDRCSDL
T2 sequence (P06276 29-602): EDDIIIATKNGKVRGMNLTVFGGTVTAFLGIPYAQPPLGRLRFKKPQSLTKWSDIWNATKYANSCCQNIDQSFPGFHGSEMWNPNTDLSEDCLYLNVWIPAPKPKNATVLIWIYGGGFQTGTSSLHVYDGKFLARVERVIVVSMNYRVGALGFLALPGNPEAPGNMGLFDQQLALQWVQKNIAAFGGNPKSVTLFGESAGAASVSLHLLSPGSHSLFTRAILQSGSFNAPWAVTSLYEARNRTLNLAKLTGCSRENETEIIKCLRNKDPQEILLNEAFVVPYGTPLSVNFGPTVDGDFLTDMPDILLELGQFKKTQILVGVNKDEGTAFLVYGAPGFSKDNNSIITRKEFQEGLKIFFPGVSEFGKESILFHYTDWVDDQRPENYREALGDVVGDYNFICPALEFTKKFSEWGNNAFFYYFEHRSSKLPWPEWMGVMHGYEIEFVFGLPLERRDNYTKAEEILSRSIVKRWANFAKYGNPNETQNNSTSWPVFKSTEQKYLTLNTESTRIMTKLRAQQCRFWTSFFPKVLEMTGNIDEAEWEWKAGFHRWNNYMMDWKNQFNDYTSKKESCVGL

Row | Compound | IC50 (hAChE [1]) [µM] | IC50 (hBuChE [2]; [14]) [µM] | inhibition at 10 µM (GSK-3β) [%] | PAMPA-BBB Permeability (Pe) (in vitro) | PAMPA-BBB prediction of penetration in the CNS (in vitro) | Papp (in vitro) [×10⁻⁶ cm/s] | activity at 10 µM [3] [%] | viability at 10 µM [4] [%] | activity at 10 µM (A549 (lung carcinoma)) [%] | activity at 10 µM [5] [%] | activity at 10 µM [6] [%] | activity at 10 µM [7] [%] | activity at 10 µM [8] [%] | activity at 10 µM [9] [%] | activity at 10 µM (SAOS-2 (osteosarcoma)) [%] | activity at 10 µM [10] [%] | mechanism of inhibition of hAChE (hAChE [11]) | mechanism of inhibition of hBuChE (hBuChE [12]) | also measured
1 | COC1C=CC23c4cc5c(cc4CN(CC2OC(=O)c2ccccc2C)C3C1)OCO5 (stereo not shown) [Compound 1j, 11-O-(2-Methylbenzoyl)haemanthamine] | 18.2 ± 1.3 | 6.6 ± 1.2 | 15 ± 6 | 5.8 ± 0.9 10^−6 cm s^−1 | CNS+ (CNS(+): high BBB permeation predicted with Pe (10^−6 cm.s^−1) > 4.0) | > 4 | 95 ± 11 | 91 ± 3 | 96 ± 8 | 98 ± 6 | 95 ± 6 | 129 ± 11 | 104 ± 4 | 112 ± 3 | 97 ± 17 | 112 ± 9 | mixed mechanism of inhibition | mixed mechanism of inhibition | SI for hAChE (hAChE [1]): 0.4; PAMPA-BBB prediction of penetration in the CNS (in vitro; listed as 18j): CNS +; Ki (hBuChE [12]; from Lineweaver-Burk kinetic analysis): 12.5 ± 0.45 µM
2 | COC1C=CC23c4cc5c(cc4CN(CC2OC(=O)c2ccc([N+](=O)[O-])cc2)C3C1)OCO5 (stereo not shown) [Compound 1m, 11-O-(4-Nitrobenzoyl)haemanthamine] | 14.7 ± 1.8 | > 500 | 27 ± 9 | 7.1 ± 0.3 10^−6 cm s^−1 | CNS+ (CNS(+): high BBB permeation predicted with Pe (10^−6 cm.s^−1) > 4.0) | > 4 | 69 ± 7 | 76 ± 12 | 74 ± 6 | 73 ± 2 | 71 ± 7 | 86 ± 4 | 71 ± 1 | 62 ± 10 | 69 ± 4 | 61 ± 8 | mixed mechanism of inhibition | mixed mechanism of inhibition | IC50 (GSK-3β; mean ± SEM of three independent measurements): 34.8 ± 0.01 µM; PAMPA-BBB prediction of penetration in the CNS (in vitro; listed as 18m): CNS +
3 | COC1C=CC23c4cc5c(cc4CN(CC2O)C3C1)OCO5 (stereo not shown) [Compound 1, Haemanthamine] | > 500 | – | – | – | – | – | – | – | – | – | – | – | – | – | – | – | – | – | hAChE inhibition activity, in words (hAChE [1]; cholinesterase assay): completely inactive; IC50 (hBuChE [2]): > 500 µM; hBuChE inhibition activity, in words (hBuChE [2]; cholinesterase assay): completely inactive; toxicity against the tested human cell lines, in words [13]: potent cytotoxic and apoptotic effects
